Measured values published in patent US12049450B2, “Pyridyloxy-carboxylate derivative and preparation method therefor, herbicidal composition, and use” (Qingdao Kingagroot Chemical Compound Co., Ltd., priority 2018, dated 2024).

Key:
Assay in all cases: Post-emergence test experiment (greenhouse pot, spray at 2-3 leaf stage)
Format in all cases: in vivo
Details in all cases: 1000 g/ha; post-emergence spray at 2-3 leaf stage; assessed after 3 weeks; fresh weight inhibition rate
[1] = test system: Galium spurium
Procedure, shortened: (§1)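 Weed seeds sown in soil-filled pots in greenhouse, sprayed at 2-3 leaf stage (2 weeks after sowing) with compound in acetone/tween-80 plus methyl oleate emulsible concentrate (1.5 L/ha) diluted in water. Fresh-weight growth inhibition scored after 3 weeks on 0-5 scale (5: >85%, 0: <5%).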

[2] = test system: Digitaria sanguinalis
Procedure, shortened: as §1

[3] = test system: Echinochloa crusgalli
Procedure, shortened: as §1

[4] = test system: Monochoria vaginalis
Procedure, shortened: as §1

[5] = test system: Abutilon theophrasti
Procedure, shortened: as §1

CSc1cccc(COC(=O)C(C)Oc2nc(F)c(Cl)c(N)c2Cl)c1 (centres unmarked) [Compound 92]
Activity level (growth inhibition rate) Galium spurium [1]: 5 (Level 5: the growth inhibition rate is greater than 85%)
Activity level (growth inhibition rate) Digitaria sanguinalis [2]: 5 (Level 5: the growth inhibition rate is greater than 85%)
Activity level (growth inhibition rate) Echinochloa crusgalli [3]: 5 (Level 5: the growth inhibition rate is greater than 85%)
Activity level (growth inhibition rate) Monochoria Vaginalis [4]: 5 (Level 5: the growth inhibition rate is greater than 85%)
Activity level (growth inhibition rate) Abutilon theophrasti [5]: 5 (Level 5: the growth inhibition rate is greater than 85%)

CC(Oc1nc(F)c(Cl)c(N)c1Cl)C(=O)SCn1ccnn1 (centres unmarked) [Compound 137]
Activity level (growth inhibition rate) Galium spurium [1]: 5 (Level 5: the growth inhibition rate is greater than 85%)
Activity level (growth inhibition rate) Digitaria sanguinalis [2]: 5 (Level 5: the growth inhibition rate is greater than 85%)
Activity level (growth inhibition rate) Echinochloa crusgalli [3]: 5 (Level 5: the growth inhibition rate is greater than 85%)
Activity level (growth inhibition rate) Monochoria Vaginalis [4]: 5 (Level 5: the growth inhibition rate is greater than 85%)
Activity level (growth inhibition rate) Abutilon theophrasti [5]: 5 (Level 5: the growth inhibition rate is greater than 85%)

CC(Oc1nc(F)c(Cl)c(N)c1Cl)C(=O)SCc1cncs1 (centres unmarked) [Compound 159]
Activity level (growth inhibition rate) Galium spurium [1]: 5 (Level 5: the growth inhibition rate is greater than 85%)
Activity level (growth inhibition rate) Digitaria sanguinalis [2]: 5 (Level 5: the growth inhibition rate is greater than 85%)
Activity level (growth inhibition rate) Echinochloa crusgalli [3]: 5 (Level 5: the growth inhibition rate is greater than 85%)
Activity level (growth inhibition rate) Monochoria Vaginalis [4]: 5 (Level 5: the growth inhibition rate is greater than 85%)
Activity level (growth inhibition rate) Abutilon theophrasti [5]: 5 (Level 5: the growth inhibition rate is greater than 85%)

CC(Oc1nc(F)c(Cl)c(N)c1Cl)C(=O)OCc1ccc2ccccc2c1 (centres unmarked) [Compound 181]
Activity level (growth inhibition rate) Galium spurium [1]: 5 (Level 5: the growth inhibition rate is greater than 85%)
Activity level (growth inhibition rate) Digitaria sanguinalis [2]: 5 (Level 5: the growth inhibition rate is greater than 85%)
Activity level (growth inhibition rate) Echinochloa crusgalli [3]: 5 (Level 5: the growth inhibition rate is greater than 85%)
Activity level (growth inhibition rate) Monochoria Vaginalis [4]: 5 (Level 5: the growth inhibition rate is greater than 85%)
Activity level (growth inhibition rate) Abutilon theophrasti [5]: 5 (Level 5: the growth inhibition rate is greater than 85%)

CC(Oc1nc(F)c(Cl)c(N)c1Cl)C(=O)OCc1cccc(-c2cccnc2)c1 (racemic) [Compound 115]
Activity level (growth inhibition rate) Galium spurium [1]: 5 (Level 5: the growth inhibition rate is greater than 85%)
Activity level (growth inhibition rate) Digitaria sanguinalis [2]: 5 (Level 5: the growth inhibition rate is greater than 85%)
Activity level (growth inhibition rate) Echinochloa crusgalli [3]: 5 (Level 5: the growth inhibition rate is greater than 85%)
Activity level (growth inhibition rate) Monochoria Vaginalis [4]: 5 (Level 5: the growth inhibition rate is greater than 85%)
Activity level (growth inhibition rate) Abutilon theophrasti [5]: 5 (Level 5: the growth inhibition rate is greater than 85%)

Cc1nc2cc(COC(=O)C(C)Oc3nc(F)c(Cl)c(N)c3Cl)ccc2o1 (centres unmarked) [Compound 175]
Activity level (growth inhibition rate) Galium spurium [1]: 5 (Level 5: the growth inhibition rate is greater than 85%)
Activity level (growth inhibition rate) Digitaria sanguinalis [2]: 5 (Level 5: the growth inhibition rate is greater than 85%)
Activity level (growth inhibition rate) Echinochloa crusgalli [3]: 5 (Level 5: the growth inhibition rate is greater than 85%)
Activity level (growth inhibition rate) Monochoria Vaginalis [4]: 5 (Level 5: the growth inhibition rate is greater than 85%)
Activity level (growth inhibition rate) Abutilon theophrasti [5]: 5 (Level 5: the growth inhibition rate is greater than 85%)

CC(Oc1nc(F)c(Cl)c(N)c1Cl)C(=O)OCc1nccn1C (centres unmarked) [Compound 130]
Activity level (growth inhibition rate) Galium spurium [1]: 5 (Level 5: the growth inhibition rate is greater than 85%)
Activity level (growth inhibition rate) Digitaria sanguinalis [2]: 5 (Level 5: the growth inhibition rate is greater than 85%)
Activity level (growth inhibition rate) Echinochloa crusgalli [3]: 5 (Level 5: the growth inhibition rate is greater than 85%)
Activity level (growth inhibition rate) Monochoria Vaginalis [4]: 5 (Level 5: the growth inhibition rate is greater than 85%)
Activity level (growth inhibition rate) Abutilon theophrasti [5]: 5 (Level 5: the growth inhibition rate is greater than 85%)

CC(Oc1ncc(Cl)c(N)c1C(F)(F)F)C(=O)OCc1ccccc1 (centres unmarked) [Compound 16]
Activity level (growth inhibition rate) Galium spurium [1]: 5 (Level 5: the growth inhibition rate is greater than 85%)
Activity level (growth inhibition rate) Digitaria sanguinalis [2]: 5 (Level 5: the growth inhibition rate is greater than 85%)
Activity level (growth inhibition rate) Echinochloa crusgalli [3]: 5 (Level 5: the growth inhibition rate is greater than 85%)
Activity level (growth inhibition rate) Monochoria Vaginalis [4]: 5 (Level 5: the growth inhibition rate is greater than 85%)
Activity level (growth inhibition rate) Abutilon theophrasti [5]: 5 (Level 5: the growth inhibition rate is greater than 85%)

CC(Oc1nc(F)c(Cl)c(N)c1Cl)C(=O)OCc1cccnc1 (racemic) [Compound 116]
Activity level (growth inhibition rate) Galium spurium [1]: 5 (Level 5: the growth inhibition rate is greater than 85%)
Activity level (growth inhibition rate) Digitaria sanguinalis [2]: 5 (Level 5: the growth inhibition rate is greater than 85%)
Activity level (growth inhibition rate) Echinochloa crusgalli [3]: 5 (Level 5: the growth inhibition rate is greater than 85%)
Activity level (growth inhibition rate) Monochoria Vaginalis [4]: 5 (Level 5: the growth inhibition rate is greater than 85%)
Activity level (growth inhibition rate) Abutilon theophrasti [5]: 5 (Level 5: the growth inhibition rate is greater than 85%)

CC(Oc1nc(F)c(Cl)c(N)c1Cl)C(=O)OCc1cncn1C (centres unmarked) [Compound 131]
Activity level (growth inhibition rate) Galium spurium [1]: 5 (Level 5: the growth inhibition rate is greater than 85%)
Activity level (growth inhibition rate) Digitaria sanguinalis [2]: 5 (Level 5: the growth inhibition rate is greater than 85%)
Activity level (growth inhibition rate) Echinochloa crusgalli [3]: 5 (Level 5: the growth inhibition rate is greater than 85%)
Activity level (growth inhibition rate) Monochoria Vaginalis [4]: 5 (Level 5: the growth inhibition rate is greater than 85%)
Activity level (growth inhibition rate) Abutilon theophrasti [5]: 5 (Level 5: the growth inhibition rate is greater than 85%)

CC(Oc1nc(F)c(Cl)c(N)c1Cl)C(=O)OCc1ccc(C2CC2Cl)cc1 (centres unmarked) [Compound 102]
Activity level (growth inhibition rate) Galium spurium [1]: 5 (Level 5: the growth inhibition rate is greater than 85%)
Activity level (growth inhibition rate) Digitaria sanguinalis [2]: 5 (Level 5: the growth inhibition rate is greater than 85%)
Activity level (growth inhibition rate) Echinochloa crusgalli [3]: 5 (Level 5: the growth inhibition rate is greater than 85%)
Activity level (growth inhibition rate) Monochoria Vaginalis [4]: 5 (Level 5: the growth inhibition rate is greater than 85%)
Activity level (growth inhibition rate) Abutilon theophrasti [5]: 5 (Level 5: the growth inhibition rate is greater than 85%)

CC(Oc1nc(F)c(Cl)c(N)c1Cl)C(=O)OCc1ccc(N(C)C)cc1 (centres unmarked) [Compound 93]
Activity level (growth inhibition rate) Galium spurium [1]: 5 (Level 5: the growth inhibition rate is greater than 85%)
Activity level (growth inhibition rate) Digitaria sanguinalis [2]: 5 (Level 5: the growth inhibition rate is greater than 85%)
Activity level (growth inhibition rate) Echinochloa crusgalli [3]: 5 (Level 5: the growth inhibition rate is greater than 85%)
Activity level (growth inhibition rate) Monochoria Vaginalis [4]: 5 (Level 5: the growth inhibition rate is greater than 85%)
Activity level (growth inhibition rate) Abutilon theophrasti [5]: 5 (Level 5: the growth inhibition rate is greater than 85%)

CC(Oc1nc(F)c(Cl)c(N)c1Cl)C(=O)OCc1cccc(I)c1 (centres unmarked) [Compound 78]
Activity level (growth inhibition rate) Galium spurium [1]: 5 (Level 5: the growth inhibition rate is greater than 85%)
Activity level (growth inhibition rate) Digitaria sanguinalis [2]: 5 (Level 5: the growth inhibition rate is greater than 85%)
Activity level (growth inhibition rate) Echinochloa crusgalli [3]: 5 (Level 5: the growth inhibition rate is greater than 85%)
Activity level (growth inhibition rate) Monochoria Vaginalis [4]: 5 (Level 5: the growth inhibition rate is greater than 85%)
Activity level (growth inhibition rate) Abutilon theophrasti [5]: 5 (Level 5: the growth inhibition rate is greater than 85%)
